# Source: patent US20080267903A1, “Bioactive Polymers” (priority 2004, published 2008)
# “And” between values parts separate entries of the source, which are not always exact repeats. Identical values can stand only once.
# Key:
# [1] = cited from earlier work
# [2] = Systemic toxicity, tolerability and body weight after intravenous injection (FIG. 3); assay type: in vivo
# Procedure: All formulations were prepared as solutions (or suspensions) in 5% dextrose. Each dose contained 250 μg of DAB 4, DAB 16, DAB 32, QDAB8, respectively. The PAMAM dendrimer and linear PEI were given as dilutions of Superfect (100 μl per animal) and Exgen (9 μl per animal) respectively, in 5% dextrose solution.
# (§4) Animals were injected intravenously (0.2 ml per injection) with the different formulations either once or alternatively on a schedule every other day (0.5 q.d.) over 10 days (every second day, 5 injection). […] Each group consisted of 5 animals (n=5). As a control DAB 16-DNA complexes were prepared as previously described [36] by mixing dendrimer and DNA (50 μg) at a 5:1 weight ratio in a 5% dextrose solution (200 μl/animal). Free plasmid DNA (50 μg) was given in 200 μL 5% dextrose. Animals were monitored at regular intervals, the tumour size was determined using callipers, and body weight measured and recorded.
# [3] = tested on: LS174T Human Colorectal Adenocarcinoma (ATCC CCL-188) xenografts; assay: Established LS174T xenografts, treatment q.2d 5x (FIG. 4); assay type: in vivo, mice; details: LS174T colorectal tumours, q.2d 5x i.v.
# Procedure: (§1) Female mice (CD1-nu, initial mean weight 20 g) were housed in groups of five in suspended plastic cages at 19-23° C. with a 12 h light-dark cycle. A conventional diet (Rat and Mouse Standard Expanded, B and K Universal, Grimston, UK) and water from the mains were available ad libidum. Experimental work was carried out in accordance with UK Home Office regulations and approved by the local ethics committee.
# (§2) Tumour cells [LS174 Human Colorectal Adenocarcinoma (ATCC CL-188), A431 Epidermoid Carcinoma (ATCC CRL-1555), C33a Human Cervix Carcinoma (ATCC HTB31)] were grown as monolayers in 75 cm^2 flasks in Dulbecco's Modified Eagle's Medium (DMEM) supplemented with 10% (v/v) foetal bovine serum (FBS) and 1% (v/v) glutamine, in a humid atmosphere of 5% CO2 at 37° C. Medium was changed twice a week. Cells were subcultured every seven days by trypsin treatment and experiments were conducted when the cells were in exponential phase. […]
# (§3) Animals were injected intravenously (0.2 ml per injection) with the different formulations either once or alternatively on a schedule every other day (0.5 q.d.) over 10 days (every second day, 5 injection). […] Animals were monitored at regular intervals, the tumour size was determined using callipers, and body weight measured and recorded. Expression of genes containined on nucleic acids complexed with the various polymers was measured as described previously.
# [4] = tested on: C33a Human Cervix Carcinoma (ATCC HTB31) xenografts; assay: Established C33a xenografts, treatment q.2d 5x (FIG. 5); assay type: in vivo, mice; details: C33a cervix carcinomas, q.2d 5x i.v.
# Procedure: as §1, §2, §3
# [5] = tested on: A431 epidermoid carcinoma (ATCC CRL-1555); assay: Established A431 xenografts, repeated injection every 2nd day over 10 days, long-term follow-up (FIGS. 6-8)
# Procedure: A431 epidermoid carcinoma tumours were grafted into nude CD-1 mice and left to establish (˜5 mm). Animals were treated by injection of the relevant formulation every 2nd day over 10 days (5 injections). […] Tumour volume doubling time was measured as a surrogate endpoint as substantial tumour growth immediately precedes tumour related mortality.
# All formulations were prepared as solutions (or suspensions) in 5% dextrose.
# as §4
# [6] = tested on: A431 epidermoid carcinoma cells; assay: Cytostatic effects of cationic polymers on tumour cells in vitro (FIG. 1); assay type: cell-based; details: lysis control
# Procedure: A431 epidermoid carcinoma cells were treated with various cationic polymers. PEI, Superfect and various DAB polymers were added to the culture medium at concentrations of 0.45 μL/mL, 5 μL/mL and 12.5 μg/mL respectively for the duration of the experiment.
compound,measurement,setting,value
C[C@H](N)C(=O)O [Alanine],pKa of the α-NH3+ group,[1],9.9
N[C@@H](CC(=O)O)C(=O)O [Aspartic acid],pKa of the α-NH3+ group,[1],10.0
NCCCN(CCCN)CCCN(CCCCN(CCCN(CCCN)CCCN)CCCN(CCCN)CCCN)CCCN(CCCN)CCCN [DAB8],time to death after i.v. injection,[2],5 to 10 s
NCCCN(CCCN)CCCN(CCCN(CCCN)CCCN)CCCN(CCCCN(CCCN(CCCN(CCCN)CCCN)CCCN(CCCN)CCCN)CCCN(CCCN(CCCN)CCCN)CCCN(CCCN)CCCN)CCCN(CCCN(CCCN)CCCN)CCCN(CCCN)CCCN [DAB16],tumour growth,[3],inhibited tumour growth significantly
same,tumour growth,[4],inhibited tumour growth significantly
same,survival of the treated mice,"[5]; 0.5 q.d. X5, long term experiment",long term survival
same,"complete disappearance of tumours, 2 mice","[5]; 0.5 q.d. X5, n=5",43 days and 51 days
same,"start of decrease of the tumour size, 2 mice","[5]; 0.5 q.d. X5, n=5",23 days
same,"start of decrease of the tumour size, all the mice","[5]; 0.5 q.d. X5, n=5",33 days
same,long-term tumour growth delay (tumour volume doubling time as surrogate endpoint),"[5]; 5 injections over 10 days, FIG. 7",improved long-term growth reduction
same,tumour growth,"[5]; A431 epidermoid carcinoma model, q.2d 5x i.v.",inhibited tumour growth significantly
N[C@@H](CO)C(=O)O [Serine],pKa of the α-NH3+ group,[1],9.1
triton X,cell number,[6],decrease in cell number consistent with cell lysis
